# Numbered stars: 1 amine (or outer) side, 2 acyl side, 3 side chain; on linkers, the order of the positions; unused ones are H or OH. Bridge positions count the residues as written; N and C are the ends. Square brackets hold non-standard residues; d marks the D form. Side chains are listed from the residue outwards. Peptide text beside a SMILES is read from it. I, II: the chains in the order shown. * marks the point of attachment. C18 diacid = O=C(O)CCCCCCCCCCCCCCCCC(=O)*; γGlu = O=C(O)[C@H](CCC(=O)[*:2])N[*:1]; Ac4c = NC1(C(=O)O)CCC1; AEEA = NCCOCCOCC(=O)O; Aib = CC(C)(N)C(=O)O
# Target: T1, human GLP-1 receptor (Homo sapiens, UniProt P43220)
# T1 construct: expressed in transfected cells; host or cells: BHK cells (parent BHKTS13), clone FCW467-12A/KZ10-1, with CRE luciferase
# Assay: GLP-1 receptor potency, CRE luciferase reporter gene assay in BHK cells
# Format: cell-based
# Settings: BHK cells expressing human GLP-1 receptor, read-out: EC50 GLP-1R
# Procedure, shortened: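 BHK cells stably expressing human GLP-1 receptor with CRE-luciferase reporter, 5×10EE3 cells/well in phenol red-free DMEM with 10 mM Hepes, 2% ovalbumin, 0.2% Pluronic F-68. Compounds at final 1×10EE-6 to 1×10EE-13 M, 3 h at 37° C; steadylite luminescence; EC50 by four-parameter fit, in pM.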
# T1 sequence (P43220 24-463): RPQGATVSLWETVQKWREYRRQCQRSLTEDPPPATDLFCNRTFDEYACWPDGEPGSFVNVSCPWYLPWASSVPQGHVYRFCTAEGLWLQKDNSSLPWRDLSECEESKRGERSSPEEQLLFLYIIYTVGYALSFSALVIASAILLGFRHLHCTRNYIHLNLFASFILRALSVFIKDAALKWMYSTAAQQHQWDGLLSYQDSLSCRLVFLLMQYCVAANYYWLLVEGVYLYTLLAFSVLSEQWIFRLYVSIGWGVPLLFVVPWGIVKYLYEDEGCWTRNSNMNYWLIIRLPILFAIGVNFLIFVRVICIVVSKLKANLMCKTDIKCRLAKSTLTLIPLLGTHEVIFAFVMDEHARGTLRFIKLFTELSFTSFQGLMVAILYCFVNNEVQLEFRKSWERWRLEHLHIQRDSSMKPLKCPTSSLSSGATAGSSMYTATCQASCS
row,EC50 [pM],Compound
1,2,"CC(C)C[C@H](NC(=O)[C@H](Cc1ccc(O)cc1)NC(=O)[C@H](CCCCN)NC(=O)[C@H](CO)NC(=O)[C@H](CC(C)C)NC(=O)[C@H](CC(=O)O)NC(=O)[C@H](CO)NC(=O)[C@@H](NC(=O)[C@H](Cc1ccccc1)NC(=O)[C@@H](NC(=O)CNC(=O)[C@H](CCC(N)=O)NC(=O)C1(NC(=O)[C@@H](N)Cc2c[nH]cn2)CCC1)[C@@H](C)O)[C@@H](C)O)C(=O)N[C@@H](CCC(=O)O)C(=O)N[C@@H](CO)C(=O)N[C@@H](CCCCN)C(=O)N[C@@H](CCCNC(=N)N)C(=O)N[C@@H](C)C(=O)N[C@@H](CCCNC(=N)N)C(=O)N[C@@H](CCC(=O)O)C(=O)N[C@@H](Cc1ccccc1)C(=O)N[C@H](C(=O)N[C@@H](CCC(N)=O)C(=O)N[C@@H](Cc1c[nH]c2ccccc12)C(=O)N[C@@H](CC(C)C)C(=O)N[C@@H](CC(C)C)C(=O)N[C@@H](CCCCNC(=O)CNC(=O)[C@H](CO)NC(=O)[C@H](CCC(=O)O)NC(=O)CNC(=O)[C@H](CO)NC(=O)CC[C@H](NC(=O)CC[C@H](NC(=O)CCCCCCCCCCCCCCCCC(=O)O)C(=O)O)C(=O)O)C(=O)N[C@H](C(N)=O)[C@@H](C)O)C(C)C [Example 36, N^ε28-[2-[[(2S)-2-[[(2S)-4-carboxy-2-[[2-[[(2S)-2-[[(4S)-4-carboxy-4-[[(4S)-4-carboxy-4-(17-carboxyheptadecanoylamino)butanoyl]amino]butanoyl]amino]-3-hydroxypropanoyl]amino]acetyl]amino]butanoyl]amino]-3-hydroxypropanoyl]amino]acetyl]-[Acb2,Leu10,Glu15,Lys17, Arg20,Glu21,Leu27,Lys28]-Glucagon amide] (I: H-H[Ac4c]QGTFTSDLSKYLESKRAREFVQWLLKT-NH2 / II: {C18 diacid-γGlu-γGlu}-SGESG; amide I:28-II:C; N-terminus assumed)"
2,4,"CC(C)C[C@H](NC(=O)[C@H](Cc1ccc(O)cc1)NC(=O)[C@H](CCCCN)NC(=O)[C@H](CO)NC(=O)[C@H](CC(C)C)NC(=O)[C@H](CC(=O)O)NC(=O)[C@H](CO)NC(=O)[C@@H](NC(=O)[C@H](Cc1ccccc1)NC(=O)[C@@H](NC(=O)CNC(=O)[C@H](Cc1c[nH]cn1)NC(=O)C(C)(C)NC(=O)[C@@H](N)Cc1c[nH]cn1)[C@@H](C)O)[C@@H](C)O)C(=O)N[C@@H](CCC(=O)O)C(=O)N[C@@H](CO)C(=O)N[C@@H](CCCNC(=N)N)C(=O)N[C@@H](CCCNC(=N)N)C(=O)N[C@@H](C)C(=O)N[C@@H](CCCNC(=N)N)C(=O)N[C@@H](CC(=O)O)C(=O)N[C@@H](Cc1ccccc1)C(=O)N[C@H](C(=O)N[C@@H](CCC(N)=O)C(=O)N[C@@H](Cc1c[nH]c2ccccc12)C(=O)N[C@@H](CC(C)C)C(=O)N[C@@H](CC(C)C)C(=O)N[C@@H](CCCCNC(=O)CNC(=O)[C@H](CO)NC(=O)[C@H](CCC(=O)O)NC(=O)CNC(=O)[C@H](CO)NC(=O)CC[C@H](NC(=O)CC[C@H](NC(=O)CCCCCCCCCCCCCCCCC(=O)O)C(=O)O)C(=O)O)C(=O)N[C@H](C(N)=O)[C@@H](C)O)C(C)C [Example 37, N^ε28-[2-[[(2S)-2-[[(2S)-4-carboxy-2-[[2-[[(2S)-2-[[(4S)-4-carboxy-4-[[(4S)-4-carboxy-4-(17-carboxyheptadecanoylamino)butanoyl]amino]butanoyl]amino]-3-hydroxypropanoyl]amino]acetyl]amino]butanoyl]amino]-3-hydroxypropanoyl]amino]acetyl]-[Aib2,His3,Leu10,Glu15, Arg20,Leu27,Lys28]-Glucagon amide] (I: H-H[Aib]HGTFTSDLSKYLESRRARDFVQWLLKT-NH2 / II: {C18 diacid-γGlu-γGlu}-SGESG; amide I:28-II:C; N-terminus assumed)"
3,4,"CC(C)C[C@H](NC(=O)[C@H](Cc1ccc(O)cc1)NC(=O)[C@H](CCCCN)NC(=O)[C@H](CO)NC(=O)[C@H](CC(C)C)NC(=O)[C@H](CC(=O)O)NC(=O)[C@H](CO)NC(=O)[C@@H](NC(=O)[C@H](Cc1ccccc1)NC(=O)[C@@H](NC(=O)CNC(=O)[C@H](CCC(N)=O)NC(=O)C(C)(C)NC(=O)[C@@H](N)Cc1c[nH]cn1)[C@@H](C)O)[C@@H](C)O)C(=O)N[C@@H](CC(=O)O)C(=O)N[C@@H](C)C(=O)N[C@@H](CCCNC(=N)N)C(=O)N[C@@H](CCCNC(=N)N)C(=O)N[C@@H](C)C(=O)N[C@@H](CCCNC(=N)N)C(=O)N[C@@H](CCC(=O)O)C(=O)N[C@@H](Cc1ccccc1)C(=O)N[C@H](C(=O)N[C@@H](CCC(N)=O)C(=O)N[C@@H](Cc1c[nH]c2ccccc12)C(=O)N[C@@H](CC(C)C)C(=O)N[C@@H](CC(C)C)C(=O)N[C@@H](CC(N)=O)C(=O)N[C@@H](CCCCNC(=O)CC[C@H](NC(=O)CC[C@H](NC(=O)COCCOCCNC(=O)CC[C@H](NC(=O)CCCCCCCCCCCCCCCCC(=O)O)C(=O)O)C(=O)O)C(=O)O)C(N)=O)C(C)C [Example 39, N^ε29-[(4S)-4-carboxy-4-[[(4S)-4-carboxy-4-[[2-[2-[2-[[(4S)-4-carboxy-4-(17-carboxyheptadecanoylamino)butanoyl]amino]ethoxy]ethoxy]acetyl]amino]butanoyl]amino]butanoyl]-[Aib2,Leu10,Ala16,Arg20,Glu21,Leu27,Lys29]-Glucagon amide] (H-H[Aib]QGTFTSDLSKYLDARRAREFVQWLLNK([γGlu-γGlu-AEEA-γGlu-C18 diacid])-NH2; N-terminus assumed)"
4,4,"CC(C)C[C@H](NC(=O)[C@H](CC(C)C)NC(=O)[C@H](Cc1c[nH]c2ccccc12)NC(=O)[C@H](CCC(N)=O)NC(=O)[C@@H](NC(=O)[C@H](Cc1ccccc1)NC(=O)[C@H](CCC(=O)O)NC(=O)[C@H](CCCNC(=N)N)NC(=O)[C@H](C)NC(=O)[C@H](CCCNC(=N)N)NC(=O)[C@H](CCCNC(=N)N)NC(=O)[C@H](CO)NC(=O)[C@H](CCC(=O)O)NC(=O)[C@H](CC(C)C)NC(=O)[C@H](Cc1ccc(O)cc1)NC(=O)[C@H](CCCCN)NC(=O)[C@H](CO)NC(=O)[C@H](CC(C)C)NC(=O)[C@H](CC(=O)O)NC(=O)[C@H](CO)NC(=O)[C@@H](NC(=O)[C@H](Cc1ccccc1)NC(=O)[C@@H](NC(=O)CNC(=O)[C@H](CCC(N)=O)NC(=O)C(C)(C)NC(=O)[C@@H](N)Cc1c[nH]cn1)[C@@H](C)O)[C@@H](C)O)C(C)C)C(=O)N[C@@H](CC(N)=O)C(=O)N[C@@H](CCCCNC(=O)CC[C@H](NC(=O)CC[C@H](NC(=O)COCCOCCNC(=O)CC[C@H](NC(=O)CCCCCCCCCCCCCCCCC(=O)O)C(=O)O)C(=O)O)C(=O)O)C(N)=O [Example 40, N^ε29-[(4S)-4-carboxy-4-[[(4S)-4-carboxy-4-[[2-[2-[2-[[(4S)-4-carboxy-4-(17-carboxyheptadecanoylamino)butanoyl]amino]ethoxy]ethoxy]acetyl]amino]butanoyl]amino]butanoyl]-[Aib2,Leu10,Glu15,Arg20,Glu21,Leu27,Lys29]-Glucagon amide] (H-H[Aib]QGTFTSDLSKYLESRRAREFVQWLLNK([γGlu-γGlu-AEEA-γGlu-C18 diacid])-NH2; N-terminus assumed)"
5,7,"CC(C)C[C@H](NC(=O)[C@H](Cc1ccc(O)cc1)NC(=O)[C@H](CCCCN)NC(=O)[C@H](CO)NC(=O)[C@H](CC(C)C)NC(=O)[C@H](CC(=O)O)NC(=O)[C@H](CO)NC(=O)[C@@H](NC(=O)[C@H](Cc1ccccc1)NC(=O)[C@@H](NC(=O)CNC(=O)[C@H](CCC(N)=O)NC(=O)C(C)(C)NC(=O)[C@@H](N)Cc1c[nH]cn1)[C@@H](C)O)[C@@H](C)O)C(=O)N[C@@H](CCC(=O)O)C(=O)N[C@@H](CO)C(=O)N[C@@H](CCCNC(=N)N)C(=O)N[C@@H](CCCNC(=N)N)C(=O)N[C@@H](C)C(=O)N[C@@H](CCCNC(=N)N)C(=O)N[C@@H](CCC(=O)O)C(=O)N[C@@H](Cc1ccccc1)C(=O)N[C@H](C(=O)N[C@@H](CCC(N)=O)C(=O)N[C@@H](Cc1c[nH]c2ccccc12)C(=O)N[C@@H](CC(C)C)C(=O)N[C@@H](CC(C)C)C(=O)N[C@@H](CCCCNC(=O)CC[C@H](NC(=O)CC[C@H](NC(=O)CC[C@H](NC(=O)CCCCCCCCCCCCCCCCC(=O)O)C(=O)O)C(=O)O)C(=O)O)C(=O)N[C@H](C(N)=O)[C@@H](C)O)C(C)C [Example 41, N^ε28-[(4S)-4-carboxy-4-[[(4S)-4-carboxy-4-[[(4S)-4-carboxy-4-(17-carboxyheptadecanoylamino)butanoyl]amino]butanoyl]amino]butanoyl]-[Aib2,Leu10,Glu15, Arg20,Glu21,Leu27,Lys28]-Glucagon amide] (H-H[Aib]QGTFTSDLSKYLESRRAREFVQWLLK([γGlu-γGlu-γGlu-C18 diacid])T-NH2; N-terminus assumed)"
6,3,"CC(C)C[C@H](NC(=O)[C@H](Cc1ccc(O)cc1)NC(=O)[C@H](CCCCN)NC(=O)[C@H](CO)NC(=O)[C@H](CC(C)C)NC(=O)[C@H](CC(=O)O)NC(=O)[C@H](CO)NC(=O)[C@@H](NC(=O)[C@H](Cc1ccccc1)NC(=O)[C@@H](NC(=O)CNC(=O)[C@H](CCC(N)=O)NC(=O)C(C)(C)NC(=O)[C@@H](N)Cc1c[nH]cn1)[C@@H](C)O)[C@@H](C)O)C(=O)N[C@@H](CCC(=O)O)C(=O)N[C@@H](CO)C(=O)N[C@@H](CCCNC(=N)N)C(=O)N[C@@H](CCCNC(=N)N)C(=O)N[C@@H](C)C(=O)N[C@@H](CCCNC(=N)N)C(=O)N[C@@H](CCC(=O)O)C(=O)N[C@@H](Cc1ccccc1)C(=O)N[C@H](C(=O)N[C@@H](CCC(N)=O)C(=O)N[C@@H](Cc1c[nH]c2ccccc12)C(=O)N[C@@H](CC(C)C)C(=O)N[C@@H](CC(C)C)C(=O)N[C@@H](CCCCNC(=O)COCCOCCNC(=O)COCCOCCNC(=O)CC[C@H](NC(=O)CC[C@H](NC(=O)CC[C@H](NC(=O)CCCCCCCCCCCCCCCCC(=O)O)C(=O)O)C(=O)O)C(=O)O)C(=O)N[C@H](C(N)=O)[C@@H](C)O)C(C)C [Example 42, N^ε28-[2-[2-[2-[[2-[2-[2-[[(4S)-4-carboxy-4-[[(4S)-4-carboxy-4-[[(4S)-4-carboxy-4-(17-carboxyheptadecanoylamino)butanoyl]amino]butanoyl]amino]butanoyl]amino]ethoxy]ethoxy]acetyl]amino]ethoxy]ethoxy]acetyl]-[Aib2,Leu10,Glu15,Arg20,Glu21,Leu27,Lys28]-Glucagon amide] (H-H[Aib]QGTFTSDLSKYLESRRAREFVQWLLK([AEEA-AEEA-γGlu-γGlu-γGlu-C18 diacid])T-NH2; N-terminus assumed)"

# Source: patent publication US9474790B2, “Stable, protracted GLP-1/glucagon receptor co-agonists for medical use” (Novo Nordisk A/S, priority 2013, dated 2016)
